Counter-ions that a name gives are not always drawn.
These molecules were tested against recombinant N-terminal PMS2 (residues 1-365) (Homo sapiens (Human), UniProt P54278) (assay: Fluorescence polarisation assay for PMS2). Conditions: 10 nM N-terminal PMS2, 5 nM fluorescent probe compound; 30 min pre-incubation, read after 1 hour at room temperature.
Chain of recombinant N-terminal PMS2 (residues 1-365) (P54278 1-365): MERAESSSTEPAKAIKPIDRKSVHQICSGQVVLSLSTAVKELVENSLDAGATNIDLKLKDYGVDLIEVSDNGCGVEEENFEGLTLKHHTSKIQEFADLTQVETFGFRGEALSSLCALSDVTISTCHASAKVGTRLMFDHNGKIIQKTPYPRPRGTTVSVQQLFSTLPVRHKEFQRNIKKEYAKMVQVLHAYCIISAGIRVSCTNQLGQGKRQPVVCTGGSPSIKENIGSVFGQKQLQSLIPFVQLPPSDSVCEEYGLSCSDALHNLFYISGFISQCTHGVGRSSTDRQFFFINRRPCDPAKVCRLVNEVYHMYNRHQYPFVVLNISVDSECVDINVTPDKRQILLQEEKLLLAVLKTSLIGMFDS
Assay type: binding
Molecule `C=CC(=O)Nc1cccc2c1CN(C(=O)c1c(O)cc(O)c(C)c1OCc1ccccc1)C2` [Example 4, N-(2-(2-(Benzyloxy)-4,6-dihydroxy-3-methylbenzoyl)isoindolin-4-yl)acrylamide] has an IC50 of under 100 nM.
`COc1c(C)c(O)cc(O)c1C(=O)N1Cc2cccc(OC/C=C/C(=O)N(C)C)c2C1` [Example 35, (E)-4-((2-(4,6-Dihydroxy-2-methoxy-3-methylbenzoyl)isoindolin-4-yl)oxy)-N,N-dimethylbut-2-enamide] gave an IC50 of 100 to 1000 nM.
Work on `COc1c(C)c(O)cc(O)c1C(=O)N1Cc2ccc(OC/C=C/C(=O)N(C)C)cc2C1` [Example 34, (E)-4-[2-(4,6-Dihydroxy-2-methoxy-3-methyl-benzoyl)isoindolin-5-yl]oxy-N,N-dimethyl-but-2-enamide] yielded an IC50 of 100 to 1000 nM.
`COc1c(C)c(O)cc(O)c1C(=O)N1CCc2ccc(NC(=O)/C=C/CN(C)C)cc2C1` [Example 28, (E)-N-[2-(4,6-dihydroxy-2-methoxy-3-methyl-benzoyl)-3,4-dihydro-1H-isoquinolin-7-yl]-4-(dimethylamino)but-2-enamide] gave an IC50 of 100 to 1000 nM.
Molecule `C=CC(=O)Nc1cccc2c1CN(C(=O)c1c(O)cc(O)c(C)c1OCC1CCCCC1)C2` [Example 7, N-(2-(2-(Cyclohexylmethoxy)-4,6-dihydroxy-3-methylbenzoyl)isoindolin-4-yl) acrylamide] has an IC50 of under 100 nM.
`COc1c(C)c(O)cc(O)c1C(=O)N1Cc2cccc(N(C)C(=O)/C=C/CN(C)C)c2C1` [Example 25, (E)-N-[2-(4,6-Dihydroxy-2-methoxy-3-methyl-benzoyl)isoindolin-4-yl]-4-(dimethylamino)-N-methyl-but-2-enamide] was tested, and the IC50 was under 100 nM.
With `C=CC(=O)Nc1ccc2c(c1)CN(C(=O)c1c(O)cc(O)c(C)c1OCC1CCCCC1)C2` [Example 16, N-[2-[2-(Cyclohexylmethoxy)-4,6-dihydroxy-3-methyl-benzoyl]isoindolin-5-yl]prop-2-enamide] the IC50 was under 100 nM.
Work on `Cc1c(O)cc(O)c(C(=O)N2Cc3cccc(NC(=O)/C=C/CN(C)C)c3C2)c1OCC1CCCCC1` [Example 8, (E)-N-(2-(2-(cyclohexylmethoxy)-4,6-dihydroxy-3-methylbenzoyl)isoindolin-4-yl)-4-(dimethylamino)but-2-enamide] yielded an IC50 of under 100 nM.
Molecule `Cc1c(O)cc(O)c(C(=O)N2CCc3ccc(NC(=O)/C=C/CN(C)C)cc3C2)c1OCC1CCCCC1` [Example 21, (E)-N-[2-[2-(Cyclohexylmethoxy)-4,6-dihydroxy-3-methyl-benzoyl]-3,4-dihydro-1H-isoquinolin-7-yl]-4-(dimethylamino)but-2-enamide] has an IC50 of under 100 nM.
`CCOc1c(C)c(O)cc(O)c1C(=O)N1Cc2cccc(NC(=O)/C=C/CN(C)C)c2C1` [Example 22, (E)-4-(Dimethylamino)-N-[2-(2-ethoxy-4,6-dihydroxy-3-methyl-benzoyl)isoindolin-4-yl]but-2-enamide] was tested, and the IC50 was under 100 nM.
Work on `C=CC(=O)Nc1cccc2c1CN(C(=O)c1c(O)cc(O)c(C)c1OCC1CCCCC1)CC2` [Example 17, N-[2-[2-(Cyclohexylmethoxy)-4,6-dihydroxy-3-methyl-benzoyl]-3,4-dihydro-1H-isoquinolin-8-yl]prop-2-enamide] yielded an IC50 of 100 to 1000 nM.
`Cc1c(O)cc(O)c(C(=O)N2Cc3cccc(NC(=O)/C=C/CN(C)C)c3C2)c1OCC1CCCC1` [Example 14, (E)-N-[2-[2-(Cyclopentylmethoxy)-4,6-dihydroxy-3-methyl-benzoyl]isoindolin-4-yl]-4-(dimethylamino)but-2-enamide] was tested, and the IC50 was under 100 nM.
With `Cc1c(O)cc(O)c(C(=O)N2Cc3cccc(N(C)C(=O)/C=C/CN(C)C)c3C2)c1OCC1CC1` [Example 31, (E)-N-[2-[2-(Cyclopropylmethoxy)-4,6-dihydroxy-3-methyl-benzoyl]isoindolin-4-yl]-4-(dimethylamino)-N-methyl-but-2-enamide] the IC50 was 100 to 1000 nM.
Work on `Cc1c(O)cc(O)c(C(=O)N2Cc3cccc(NC(=O)/C=C/CN4CCCC4)c3C2)c1OCC1CCCCC1` [Example 9, (E)-N-(2-(2-(Cyclohexylmethoxy)-4,6-dihydroxy-3-methylbenzoyl)isoindolin-4-yl)-4-(pyrrolidin-1-yl)but-2-enamide] yielded an IC50 of under 100 nM.
`Cc1c(O)cc(O)c(C(=O)N2Cc3cccc(NC(=O)/C=C/CN(C)C)c3C2)c1OCC1CC1` [Example 24, (E)-N-[2-[2-(cyclopropylmethoxy)-4,6-dihydroxy-3-methyl-benzoyl]isoindolin-4-yl]-4-(dimethylamino)but-2-enamide] showed an IC50 of under 100 nM.
Work on `CN(C)C/C=C/C(=O)Nc1cccc2c1CN(C(=O)c1c(O)cc(O)cc1OCc1ccccc1)C2` [Example 2, (E)-N-(2-(2-(Benzyloxy)-4,6-dihydroxybenzoyl)isoindolin-4-yl)-4-(dimethylamino)but-2-enamide] yielded an IC50 of under 100 nM.
In the case of `Cc1c(O)cc(O)c(C(=O)N2CCc3cccc(NC(=O)/C=C/CN(C)C)c3C2)c1OCC1CCCCC1` [Example 20, (E)-N-[2-[2-(Cyclohexylmethoxy)-4,6-dihydroxy-3-methyl-benzoyl]-3,4-dihydro-1H-isoquinolin-8-yl]-4-(dimethylamino)but-2-enamide], the IC50 is reported as 100 to 1000 nM.
In the case of `C=C(F)C(=O)Nc1cccc2c1CN(C(=O)c1c(O)cc(O)c(C)c1OCc1ccccc1)C2` [Example 5, N-(2-(2-(Benzyloxy)-4,6-dihydroxy-3-methylbenzoyl)isoindolin-4-yl)-2-fluoroacrylamide], the IC50 is reported as over 1000 nM.
In the case of `CCOc1c(C)c(O)cc(O)c1C(=O)N1Cc2cccc(N(C)C(=O)/C=C/CN(C)C)c2C1` [Example 33, (E)-4-(Dimethylamino)-N-(2-(2-ethoxy-4,6-dihydroxy-3-methylbenzoyl)isoindolin-4-yl)-N-methylbut-2-enamide], the IC50 is reported as under 100 nM.
In the case of `C=C(CN1CCOCC1)C(=O)Nc1cccc2c1CN(C(=O)c1c(O)cc(O)c(C)c1OC)C2` [Example 37, N-(2-(4,6-Dihydroxy-2-methoxy-3-methylbenzoyl)isoindolin-4-yl)-2-(morpholinomethyl)acrylamide], the IC50 is reported as 100 to 1000 nM.
Molecule `Cc1c(O)cc(O)c(C(=O)N2Cc3cccc(NC(=O)/C=C/CN4CCOCC4)c3C2)c1OCC1CCCCC1` [Example 10, (E)-N-(2-(2-(cyclohexylmethoxy)-4,6-dihydroxy-3-methylbenzoyl)isoindolin-4-yl)-4-morpholinobut-2-enamide hydrochloride] has an IC50 of under 100 nM.
Molecule `C=CC(=O)N(C)c1cccc2c1CN(C(=O)c1c(O)cc(O)c(C)c1OC)C2` [Example 32, N-[2-(4,6-dihydroxy-2-methoxy-3-methyl-benzoyl)isoindolin-4-yl]-N-methyl-prop-2-enamide] has an IC50 of 100 to 1000 nM.
For `Cc1c(O)cc(O)c(C(=O)N2Cc3cccc(NC(=O)/C=C/CN(C)C)c3C2)c1OCC(F)(F)F` [Example 23, (E)-N-[2-[4,6-Dihydroxy-3-methyl-2-(2,2,2-trifluoroethoxy)benzoyl]isoindolin-4-yl]-4-(dimethylamino)but-2-enamide], the IC50 was under 100 nM.
For `C=CC(=O)Nc1ccc2c(c1)CN(C(=O)c1c(O)cc(O)c(C)c1OCC1CCCCC1)CC2` [Example 18, N-[2-[2-(Cyclohexylmethoxy)-4,6-dihydroxy-3-methyl-benzoyl]-3,4-dihydro-1H-isoquinolin-7-yl]prop-2-enamide], the IC50 was under 100 nM.
With `CC#CC(=O)Nc1cccc2c1CN(C(=O)c1c(O)cc(O)c(C)c1OCC1CCCCC1)C2` [Example 12, N-(2-(2-(Cyclohexylmethoxy)-4,6-dihydroxy-3-methylbenzoyl)isoindolin-4-yl)but-2-ynamide] the IC50 was 100 to 1000 nM.
Molecule `C=C(F)C(=O)Nc1cccc2c1CN(C(=O)c1c(O)cc(O)cc1OCc1ccccc1)C2` [Example 3, N-(2-(2-(Benzyloxy)-4,6-dihydroxy-benzoyl)isoindolin-4-yl)-2-fluoroacrylamide] has an IC50 of over 1000 nM.
Molecule `C=CC(=O)Nc1cccc2c1CN(C(=O)c1c(O)cc(O)cc1OCc1ccccc1)C2` [Example 1, N-(2-(2-(Benzyloxy)-4,6-dihydroxybenzoyl)isoindolin-4-yl)acrylamide] has an IC50 of 100 to 1000 nM.
For `Cc1c(O)cc(O)c(C(=O)N2Cc3cccc(NC(=O)/C=C/CN(C)C)c3C2)c1OCc1ccccc1` [Example 6, (E)-N-(2-(2-(Benzyloxy)-4,6-dihydroxy-3-methylbenzoyl)isoindolin-4-yl)-4-(dimethylamino)but-2-enamide], the IC50 was under 100 nM.
In the case of `C/C=C/C(=O)Nc1cccc2c1CN(C(=O)c1c(O)cc(O)c(C)c1OCC1CCCCC1)C2` [Example 13, (E)-N-(2-(2-(Cyclohexylmethoxy)-4,6-dihydroxy-3-methylbenzoyl)isoindolin-4-yl)but-2-enamide], the IC50 is reported as over 1000 nM.
`Cc1c(O)cc(O)c(C(=O)N2Cc3ccc(NC(=O)/C=C/CN(C)C)cc3C2)c1OCC1CCCCC1` [Example 19, (E)-N-[2-[2-(Cyclohexylmethoxy)-4,6-dihydroxy-3-methyl-benzoyl]isoindolin-5-yl]-4-(dimethylamino)but-2-enamide] showed an IC50 of 100 to 1000 nM.
`COc1c(C)c(O)cc(O)c1C(=O)N1Cc2ccc(N(C)C(=O)/C=C/CN(C)C)cc2C1` [Example 27, (E)-N-[2-(4,6-dihydroxy-2-methoxy-3-methyl-benzoyl)isoindolin-5-yl]-4-(dimethylamino)-N-methyl-but-2-enamide] showed an IC50 of 100 to 1000 nM.
`COc1c(C)c(O)cc(O)c1C(=O)N1CCc2ccc(N(C)C(=O)/C=C/CN(C)C)cc2C1` [Example 29, (E)-N-[2-(4,6-dihydroxy-2-methoxy-3-methyl-benzoyl)-3,4-dihydro-1H-isoquinolin-7-yl]-4-(dimethylamino)-N-methyl-but-2-enamide] showed an IC50 of 100 to 1000 nM.
Molecule `COc1c(C)c(O)cc(O)c1C(=O)N1Cc2ccc(NC(=O)/C=C/CN(C)C)cc2C1` [Example 26, (E)-N-[2-(4,6-Dihydroxy-2-methoxy-3-methyl-benzoyl)isoindolin-5-yl]-4-(dimethylamino)but-2-enamide] has an IC50 of 100 to 1000 nM.
